The source of these data is patent US8916595B2, “Plant disease controlling composition and method for controlling plant disease” (Sumitomo Chemical Company, Limited, priority 2010, dated 2014).

Structures are written as SMILES.

For the assay, the system named is gray mold fungus (Botrytis cinerea). Put plainly: Cucumber leaf disk preventive test against gray mold fungus (spray inoculation, onset area rate). It is filed as in vivo. Particulars: single compound, 15° C., four days. The protocol: True leaf of cucumber is punched out with cork borer to 13 mm in diameter to prepare a leaf disk. In 24 well microwell plate that is dispensed with 1 ml 0.8% water agar, the leaf disk is placed such that the upper side of the leaf is in an upward direction. Thereto is added 20 micro liter a testing solution prepared by mixing a dimethyl sulfoxide solution of the present compound (racemate) and a dimethyl sulfoxide solution of benthiavalicarb to a predetermined concentration to treat the leaf disk.
After confirming that the testing medical solution is dried, conidium of gray mold fungus (Botrytis cinerea) is suspended into potato dextrose broth (DIFCO) in a density of about 10^5 conidium/mL and is then subjected to a spray inoculation. After leaving to stand the leaf disk in a growth chamber set up at 15° C. for four days, an onset area on the leaf is measured and then calculated an onset area rate (hereinafter, referred to as an onset area rate of treated group).
The same operation is carried out with 20 micro liter water instead of 20 micro liter a testing medicine solution to calculate an onset area rate (hereinafter, referred to an onset area rate of non-treated group).
A preventive value is calculated from the above onset area rate of treated group and the onset area rate of non-treated group by the following equation: Preventive value(%)=100×(A−B)/A
A: an onset area rate of treated group
B: an onset area rate of non-treated group
The same operations as described in Test Example 1 are carried out with iprovalicarb instead of benthiavalicarb, so as to calculate a preventive value.
Also for comparison, the same operations as described in Test Example 1 are carried out with the exception that the testing medicine solution is substituted with a predetermined concentration of each dimethyl sulfoxide solution of the present compound (racemate) or iprovalicarb, so as to calculate respective preventive values.
For comparison, the same operations as described in Test Example 1 are carried out with the exception that the testing medicine solution is substituted with a predetermined concentration of a dimethyl sulfoxide solution of benthiavalicarb, so as to calculate a preventive value.

The mark [1] stands for this setting: treatment concentration 0.5 ppm.
[2] abbreviates: treatment concentration 5.0 ppm.

Regarding `Cc1ccc(C(C)NC(=O)[C@@H](NC(=O)OC(C)C)C(C)C)cc1` (stereo partly shown) [iprovalicarb], the “preventive value (%)” value under setting [1] came to 0% and the “preventive value (%)” value under setting [2] was found to be 15%.

Take `CC(C)[C@H](NC(=O)O)C(=O)N[C@H](C)c1nc2ccc(F)cc2s1` [benthiavalicarb]: the “preventive value (%)” value runs as follows: under setting [1], 0%; under setting [2], 15%.
